Reference: publication PMC6151383 (Molecules : A Journal of Synthetic Chemistry and Natural …, 2017)
Values after ≈ are worked out from the molar mass of the structure shown.

These compounds were tested on Mycobacterium tuberculosis 331/88 (H37Rv) (assay: In vitro antimycobacterial MIC, M. tuberculosis). Conditions: 336 h, 14 d incubation, read-out: MIC Mtb. 331/88 14 d.
Type: cell-based

Structure (SMILES)	MIC [µM]
O=S(=O)(Nc1ncccn1)c1ccc(N=Cc2cc(F)ccc2O)cc1 [Compound 2b, 4-[(5-Fluoro-2-hydroxybenzylidene)amino]-N-(pyrimidin-2-yl)benzenesulfonamide]	125 (≈ 46.5 µg/mL)

Same assay, conditions: 504 h, 21 d incubation, read-out: MIC Mtb. 331/88 21 d

Structure (SMILES)	MIC [µM]
O=S(=O)(Nc1ncccn1)c1ccc(N=Cc2cc(F)ccc2O)cc1 [Compound 2b, 4-[(5-Fluoro-2-hydroxybenzylidene)amino]-N-(pyrimidin-2-yl)benzenesulfonamide]	125 (≈ 46.5 µg/mL)

The compounds below were run on Staphylococcus epidermidis H 6966/08 (assay: Antibacterial microdilution broth MIC, S. epidermidis). Conditions: Staphylococcus epidermidis, H6966/08; 48 h incubation; read-out: MIC SE 48 h.
Type: cell-based

Structure (SMILES)	MIC [µM]
O=S(=O)(Nc1ncccn1)c1ccc(N=Cc2cc(F)ccc2O)cc1 [Compound 2b, 4-[(5-Fluoro-2-hydroxybenzylidene)amino]-N-(pyrimidin-2-yl)benzenesulfonamide]	> 250

Each compound was assayed on Aspergillus fumigatus 231 (assay: Antifungal microdilution broth MIC, A. fumigatus). Conditions: Aspergillus fumigatus, 231; 48 h incubation; read-out: MIC AF 48 h.
Type: cell-based

Structure (SMILES)	MIC [µM]
O=S(=O)(Nc1ncccn1)c1ccc(N=Cc2cc(F)ccc2O)cc1 [Compound 2b, 4-[(5-Fluoro-2-hydroxybenzylidene)amino]-N-(pyrimidin-2-yl)benzenesulfonamide]	> 250

These compounds were tested on Candida sp. (assay: Selectivity index for Candida sp. (IC50 HepG2/MIC)). Conditions: all Candida species.
Type: cell-based

Structure (SMILES)	SI for Candida sp.
O=S(=O)(Nc1ncccn1)c1ccc(N=Cc2cc(F)ccc2O)cc1 [Compound 2b, 4-[(5-Fluoro-2-hydroxybenzylidene)amino]-N-(pyrimidin-2-yl)benzenesulfonamide]	inactive

The compounds below were run on Staphylococcus aureus CCM 4516/08 (assay: Antibacterial microdilution broth MIC, S. aureus). Conditions: Staphylococcus aureus, CCM4516; 48 h incubation; read-out: MIC SA 48 h.
Type: cell-based

Structure (SMILES)	MIC [µM]
O=S(=O)(Nc1ncccn1)c1ccc(N=Cc2cc(F)ccc2O)cc1 [Compound 2b, 4-[(5-Fluoro-2-hydroxybenzylidene)amino]-N-(pyrimidin-2-yl)benzenesulfonamide]	> 250

These compounds were tested on Mycobacterium kansasii 235/80 (assay: In vitro antimycobacterial MIC, M. kansasii 235/80). Conditions: 235/80, 168 h, 7 d incubation, read-out: MIC M. kansasii 235/80 7 d.
Type: cell-based

Structure (SMILES)	MIC [µM]
O=S(=O)(Nc1ncccn1)c1ccc(N=Cc2cc(F)ccc2O)cc1 [Compound 2b, 4-[(5-Fluoro-2-hydroxybenzylidene)amino]-N-(pyrimidin-2-yl)benzenesulfonamide]	62.5 (≈ 23.3 µg/mL)

Same assay, conditions: 235/80, 336 h, 14 d incubation, read-out: MIC M. kansasii 235/80 14 d

Structure (SMILES)	MIC [µM]
O=S(=O)(Nc1ncccn1)c1ccc(N=Cc2cc(F)ccc2O)cc1 [Compound 2b, 4-[(5-Fluoro-2-hydroxybenzylidene)amino]-N-(pyrimidin-2-yl)benzenesulfonamide]	125 (≈ 46.5 µg/mL)

Same assay, conditions: 235/80, 504 h, 21 d incubation, read-out: MIC M. kansasii 235/80 21 d

Structure (SMILES)	MIC [µM]
O=S(=O)(Nc1ncccn1)c1ccc(N=Cc2cc(F)ccc2O)cc1 [Compound 2b, 4-[(5-Fluoro-2-hydroxybenzylidene)amino]-N-(pyrimidin-2-yl)benzenesulfonamide]	250 (≈ 93.1 µg/mL)

The compounds below were run on Enterococcus faecalis J 14365/08 (assay: Antibacterial microdilution broth MIC, E. faecalis). Conditions: Enterococcus faecalis, J14365/08; 48 h incubation; read-out: MIC EF 48 h.
Type: cell-based

Structure (SMILES)	MIC [µM]
O=S(=O)(Nc1ncccn1)c1ccc(N=Cc2cc(F)ccc2O)cc1 [Compound 2b, 4-[(5-Fluoro-2-hydroxybenzylidene)amino]-N-(pyrimidin-2-yl)benzenesulfonamide]	> 250

Each compound was assayed on Lichtheimia corymbifera 272 (assay: Antifungal microdilution broth MIC, L. corymbifera). Conditions: Lichtheimia corymbifera, 272; 48 h incubation; read-out: MIC LC 48 h.
Type: cell-based

Structure (SMILES)	MIC [µM]
O=S(=O)(Nc1ncccn1)c1ccc(N=Cc2cc(F)ccc2O)cc1 [Compound 2b, 4-[(5-Fluoro-2-hydroxybenzylidene)amino]-N-(pyrimidin-2-yl)benzenesulfonamide]	> 250

What follows are compounds tested on Candida krusei E28 (assay: Antifungal microdilution broth MIC, C. krusei). Conditions: Pichia kudriavzevii, E28; 48 h incubation; read-out: MIC CK 48 h.
Type: cell-based

Structure (SMILES)	MIC [µM]
O=S(=O)(Nc1ncccn1)c1ccc(N=Cc2cc(F)ccc2O)cc1 [Compound 2b, 4-[(5-Fluoro-2-hydroxybenzylidene)amino]-N-(pyrimidin-2-yl)benzenesulfonamide]	> 250

These compounds were tested on ESBL-positive Klebsiella pneumoniae J 14368/08 (assay: not given). Conditions: 24 h.

Structure (SMILES)	MIC KP-E 24 h [µM]
O=S(=O)(Nc1ncccn1)c1ccc(N=Cc2cc(F)ccc2O)cc1 [Compound 2b, 4-[(5-Fluoro-2-hydroxybenzylidene)amino]-N-(pyrimidin-2-yl)benzenesulfonamide]	>250

Same assay, conditions: 48 h

Structure (SMILES)	MIC KP-E 48 h [µM]
O=S(=O)(Nc1ncccn1)c1ccc(N=Cc2cc(F)ccc2O)cc1 [Compound 2b, 4-[(5-Fluoro-2-hydroxybenzylidene)amino]-N-(pyrimidin-2-yl)benzenesulfonamide]	>250

What follows are compounds tested on Pseudomonas aeruginosa CCM 1961 (assay: Antibacterial microdilution broth MIC, P. aeruginosa). Conditions: Pseudomonas aeruginosa, CCM1961; 48 h incubation; read-out: MIC PA 48 h.
Type: cell-based

Structure (SMILES)	MIC [µM]
O=S(=O)(Nc1ncccn1)c1ccc(N=Cc2cc(F)ccc2O)cc1 [Compound 2b, 4-[(5-Fluoro-2-hydroxybenzylidene)amino]-N-(pyrimidin-2-yl)benzenesulfonamide]	> 250

Each compound was assayed on Candida albicans ATCC 44859 (assay: Antifungal microdilution broth MIC, C. albicans). Conditions: ATCC44859, 48 h incubation, read-out: MIC CA 48 h.
Type: cell-based

Structure (SMILES)	MIC [µM]
O=S(=O)(Nc1ncccn1)c1ccc(N=Cc2cc(F)ccc2O)cc1 [Compound 2b, 4-[(5-Fluoro-2-hydroxybenzylidene)amino]-N-(pyrimidin-2-yl)benzenesulfonamide]	> 250

What follows are compounds tested on Trichophyton interdigitale 445 (assay: Antifungal microdilution broth MIC, T. interdigitale). Conditions: SI = IC50 (HepG2)/MIC, Trichophyton interdigitale.
Type: cell-based

Structure (SMILES)	SI for TI
O=S(=O)(Nc1ncccn1)c1ccc(N=Cc2cc(F)ccc2O)cc1 [Compound 2b, 4-[(5-Fluoro-2-hydroxybenzylidene)amino]-N-(pyrimidin-2-yl)benzenesulfonamide]	inactive

Same assay, conditions: Trichophyton interdigitale, 445; 72 h incubation; read-out: MIC TI 72 h

Structure (SMILES)	MIC [µM]
O=S(=O)(Nc1ncccn1)c1ccc(N=Cc2cc(F)ccc2O)cc1 [Compound 2b, 4-[(5-Fluoro-2-hydroxybenzylidene)amino]-N-(pyrimidin-2-yl)benzenesulfonamide]	> 250

Same assay, conditions: Trichophyton interdigitale, 445; 120 h incubation; read-out: MIC TI 120 h

Structure (SMILES)	MIC [µM]
O=S(=O)(Nc1ncccn1)c1ccc(N=Cc2cc(F)ccc2O)cc1 [Compound 2b, 4-[(5-Fluoro-2-hydroxybenzylidene)amino]-N-(pyrimidin-2-yl)benzenesulfonamide]	> 250

These compounds were tested on Candida glabrata 20/I (assay: Antifungal microdilution broth MIC, C. glabrata). Conditions: Nakaseomyces glabratus, 48 h incubation, read-out: MIC CG 48 h.
Type: cell-based

Structure (SMILES)	MIC [µM]
O=S(=O)(Nc1ncccn1)c1ccc(N=Cc2cc(F)ccc2O)cc1 [Compound 2b, 4-[(5-Fluoro-2-hydroxybenzylidene)amino]-N-(pyrimidin-2-yl)benzenesulfonamide]	> 250

The compounds below were run on Trichosporon asahii 1188 (assay: Antifungal microdilution broth MIC, T. asahii). Conditions: Trichosporon asahii, 1188; 48 h incubation; read-out: MIC TA 48 h.
Type: cell-based

Structure (SMILES)	MIC [µM]
O=S(=O)(Nc1ncccn1)c1ccc(N=Cc2cc(F)ccc2O)cc1 [Compound 2b, 4-[(5-Fluoro-2-hydroxybenzylidene)amino]-N-(pyrimidin-2-yl)benzenesulfonamide]	> 250

Each compound was assayed on M. kansasii 6509/96 (assay: In vitro antimycobacterial MIC, M. kansasii clinical isolate). Conditions: Mycobacterium kansasii, 6509/96, 168 h; 7 d incubation; read-out: MIC M. kansasii 6509/96 7 d.
Type: cell-based

Structure (SMILES)	MIC [µM]
O=S(=O)(Nc1ncccn1)c1ccc(N=Cc2cc(F)ccc2O)cc1 [Compound 2b, 4-[(5-Fluoro-2-hydroxybenzylidene)amino]-N-(pyrimidin-2-yl)benzenesulfonamide]	125 (≈ 46.5 µg/mL)

Same assay, conditions: Mycobacterium kansasii, 6509/96, 336 h; 14 d incubation; read-out: MIC M. kansasii 6509/96 14 d

Structure (SMILES)	MIC [µM]
O=S(=O)(Nc1ncccn1)c1ccc(N=Cc2cc(F)ccc2O)cc1 [Compound 2b, 4-[(5-Fluoro-2-hydroxybenzylidene)amino]-N-(pyrimidin-2-yl)benzenesulfonamide]	250 (≈ 93.1 µg/mL)

Same assay, conditions: Mycobacterium kansasii, 6509/96, 504 h; 21 d incubation; read-out: MIC M. kansasii 6509/96 21 d

Structure (SMILES)	MIC [µM]
O=S(=O)(Nc1ncccn1)c1ccc(N=Cc2cc(F)ccc2O)cc1 [Compound 2b, 4-[(5-Fluoro-2-hydroxybenzylidene)amino]-N-(pyrimidin-2-yl)benzenesulfonamide]	250 (≈ 93.1 µg/mL)

These compounds were tested on Escherichia coli CCM 4517 (assay: Antibacterial microdilution broth MIC, E. coli). Conditions: Escherichia coli, CCM4517; 48 h incubation; read-out: MIC EC 48 h.
Type: cell-based

Structure (SMILES)	MIC [µM]
O=S(=O)(Nc1ncccn1)c1ccc(N=Cc2cc(F)ccc2O)cc1 [Compound 2b, 4-[(5-Fluoro-2-hydroxybenzylidene)amino]-N-(pyrimidin-2-yl)benzenesulfonamide]	> 250

What follows are compounds tested on Klebsiella pneumoniae D 11750/08 (assay: not given). Conditions: 24 h.

Structure (SMILES)	MIC KP 24 h [µM]
O=S(=O)(Nc1ncccn1)c1ccc(N=Cc2cc(F)ccc2O)cc1 [Compound 2b, 4-[(5-Fluoro-2-hydroxybenzylidene)amino]-N-(pyrimidin-2-yl)benzenesulfonamide]	>250

Same assay, conditions: 48 h

Structure (SMILES)	MIC KP 48 h [µM]
O=S(=O)(Nc1ncccn1)c1ccc(N=Cc2cc(F)ccc2O)cc1 [Compound 2b, 4-[(5-Fluoro-2-hydroxybenzylidene)amino]-N-(pyrimidin-2-yl)benzenesulfonamide]	>250

Each compound was assayed on Candida tropicalis 156 (assay: Antifungal microdilution broth MIC, C. tropicalis). Conditions: Candida tropicalis, 156; 48 h incubation; read-out: MIC CT 48 h.
Type: cell-based

Structure (SMILES)	MIC [µM]
O=S(=O)(Nc1ncccn1)c1ccc(N=Cc2cc(F)ccc2O)cc1 [Compound 2b, 4-[(5-Fluoro-2-hydroxybenzylidene)amino]-N-(pyrimidin-2-yl)benzenesulfonamide]	> 250

Each compound was assayed on Mycobacterium avium 330/88 (assay: In vitro antimycobacterial MIC, M. avium). Conditions: 330/88, 336 h, 14 d incubation, read-out: MIC M. avium 330/88 14 d.
Type: cell-based

Structure (SMILES)	MIC [µM]
O=S(=O)(Nc1ncccn1)c1ccc(N=Cc2cc(F)ccc2O)cc1 [Compound 2b, 4-[(5-Fluoro-2-hydroxybenzylidene)amino]-N-(pyrimidin-2-yl)benzenesulfonamide]	500 (≈ 186 µg/mL)

Same assay, conditions: 330/88, 504 h, 21 d incubation, read-out: MIC M. avium 330/88 21 d

Structure (SMILES)	MIC [µM]
O=S(=O)(Nc1ncccn1)c1ccc(N=Cc2cc(F)ccc2O)cc1 [Compound 2b, 4-[(5-Fluoro-2-hydroxybenzylidene)amino]-N-(pyrimidin-2-yl)benzenesulfonamide]	1000 (≈ 372 µg/mL)
